Measurements published in patent US6096930A, “Herbicidal cyclohexane-1,3-dione derivatives and their preparation process” (Korea Research Institute of Chemical Technology, priority 1994, dated 2000).

Assays:
Experiment in all cases: Herbicidal activity, upland test, pre-emergence
Format in all cases: in vivo
[1] = tested on: AESIN
Summary of the method: (§1)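 Visual percent control, scored from 0 (no herbicidal effect) to 100 (complete kill), was recorded after 21 days in the greenhouse. Compounds had been sprayed onto sterilized sandy loam soil one day after seeding, in acetone/water containing up to 0.1% Tween 20, generally at 4.0 kg/ha and submultiples.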

[2] = tested on: DIGSA
Summary of the method: as §1

[3] = tested on: BROJA
Summary of the method: as §1

[4] = tested on: TRZAW
Summary of the method: as §1

[5] = tested on: ECHOR
Summary of the method: as §1

[6] = tested on: ZEAMX
Summary of the method: as §1

[7] = tested on: SOLNI
Summary of the method: as §1

[8] = tested on: SORBI
Summary of the method: as §1

CCC(=NOC)C1=C(O)CC(c2c(C)c(C)c3c(c2C)CC(C)(C)C3)CC1=O (stereo not drawn) [Compound 1]
Herbicidal activity, AESIN ([1]; 0.016 kg/ha): 0 % inhibition | Herbicidal activity, AESIN ([1]; 0.063 kg/ha): 0 % inhibition | Herbicidal activity, AESIN ([1]; 1.000 kg/ha): 0 % inhibition | Herbicidal activity, AESIN ([1]; 1.250 kg/ha): 0 % inhibition | Herbicidal activity, DIGSA ([2]; 0.016 kg/ha): 0 % inhibition | Herbicidal activity, DIGSA ([2]; 0.063 kg/ha): 30 % inhibition | Herbicidal activity, DIGSA ([2]; 1.000 kg/ha): 100 % inhibition | Herbicidal activity, DIGSA ([2]; 1.250 kg/ha): 70 % inhibition | Herbicidal activity, BROJA ([3]; 0.016 kg/ha): 0 % inhibition | Herbicidal activity, BROJA ([3]; 0.063 kg/ha): 0 % inhibition | Herbicidal activity, BROJA ([3]; 1.000 kg/ha): 100 % inhibition | Herbicidal activity, BROJA ([3]; 1.250 kg/ha): 40 % inhibition | Herbicidal activity, TRZAW ([4]; 0.016 kg/ha): 0 % inhibition | Herbicidal activity, TRZAW ([4]; 0.063 kg/ha): 0 % inhibition | Herbicidal activity, TRZAW ([4]; 1.000 kg/ha): 60 % inhibition | Herbicidal activity, TRZAW ([4]; 1.250 kg/ha): 20 % inhibition | Herbicidal activity, ECHOR ([5]; 0.016 kg/ha): 0 % inhibition | Herbicidal activity, ECHOR ([5]; 0.063 kg/ha): 30 % inhibition | Herbicidal activity, ECHOR ([5]; 1.000 kg/ha): 100 % inhibition | Herbicidal activity, ECHOR ([5]; 1.250 kg/ha): 80 % inhibition | Herbicidal activity, ZEAMX ([6]; 0.016 kg/ha): 0 % inhibition | Herbicidal activity, ZEAMX ([6]; 0.063 kg/ha): 0 % inhibition | Herbicidal activity, ZEAMX ([6]; 1.000 kg/ha): 60 % inhibition | Herbicidal activity, ZEAMX ([6]; 1.250 kg/ha): 10 % inhibition | Herbicidal activity, SOLNI ([7]; 0.016 kg/ha): 0 % inhibition | Herbicidal activity, SOLNI ([7]; 0.063 kg/ha): 0 % inhibition | Herbicidal activity, SOLNI ([7]; 1.000 kg/ha): 0 % inhibition | Herbicidal activity, SOLNI ([7]; 1.250 kg/ha): 0 % inhibition | Herbicidal activity, SORBI ([8]; 0.016 kg/ha): 0 % inhibition | Herbicidal activity, SORBI ([8]; 0.063 kg/ha): 0 % inhibition | Herbicidal activity, SORBI ([8]; 1.000 kg/ha): 60 % inhibition | Herbicidal activity, SORBI ([8]; 1.250 kg/ha): 20 % inhibition

CCON=C(CC)C1=C(O)CC(c2c(C)c(C)c3c(c2C)CC(C)(C)C3)CC1=O (stereo not drawn) [Compound 2]
Herbicidal activity, AESIN ([1]; 0.016 kg/ha): 0 % inhibition | Herbicidal activity, AESIN ([1]; 0.063 kg/ha): 0 % inhibition | Herbicidal activity, AESIN ([1]; 1.000 kg/ha): 0 % inhibition | Herbicidal activity, AESIN ([1]; 1.250 kg/ha): 0 % inhibition | Herbicidal activity, DIGSA ([2]; 0.016 kg/ha): 0 % inhibition | Herbicidal activity, DIGSA ([2]; 0.063 kg/ha): 60 % inhibition | Herbicidal activity, DIGSA ([2]; 1.000 kg/ha): 100 % inhibition | Herbicidal activity, DIGSA ([2]; 1.250 kg/ha): 100 % inhibition | Herbicidal activity, BROJA ([3]; 0.016 kg/ha): 0 % inhibition | Herbicidal activity, BROJA ([3]; 0.063 kg/ha): 20 % inhibition | Herbicidal activity, BROJA ([3]; 1.000 kg/ha): 100 % inhibition | Herbicidal activity, BROJA ([3]; 1.250 kg/ha): 60 % inhibition | Herbicidal activity, TRZAW ([4]; 0.016 kg/ha): 0 % inhibition | Herbicidal activity, TRZAW ([4]; 0.063 kg/ha): 0 % inhibition | Herbicidal activity, TRZAW ([4]; 1.000 kg/ha): 80 % inhibition | Herbicidal activity, TRZAW ([4]; 1.250 kg/ha): 20 % inhibition | Herbicidal activity, ECHOR ([5]; 0.016 kg/ha): 0 % inhibition | Herbicidal activity, ECHOR ([5]; 0.063 kg/ha): 40 % inhibition | Herbicidal activity, ECHOR ([5]; 1.000 kg/ha): 100 % inhibition | Herbicidal activity, ECHOR ([5]; 1.250 kg/ha): 100 % inhibition | Herbicidal activity, ZEAMX ([6]; 0.016 kg/ha): 0 % inhibition | Herbicidal activity, ZEAMX ([6]; 0.063 kg/ha): 0 % inhibition | Herbicidal activity, ZEAMX ([6]; 1.000 kg/ha): 100 % inhibition | Herbicidal activity, ZEAMX ([6]; 1.250 kg/ha): 40 % inhibition | Herbicidal activity, SOLNI ([7]; 0.016 kg/ha): 0 % inhibition | Herbicidal activity, SOLNI ([7]; 0.063 kg/ha): 0 % inhibition | Herbicidal activity, SOLNI ([7]; 1.000 kg/ha): 0 % inhibition | Herbicidal activity, SOLNI ([7]; 1.250 kg/ha): 0 % inhibition | Herbicidal activity, SORBI ([8]; 0.016 kg/ha): 0 % inhibition | Herbicidal activity, SORBI ([8]; 0.063 kg/ha): 0 % inhibition | Herbicidal activity, SORBI ([8]; 1.000 kg/ha): 100 % inhibition | Herbicidal activity, SORBI ([8]; 1.250 kg/ha): 30 % inhibition

CCCC(=NOC)C1=C(O)CC(c2c(C)c(C)c3c(c2C)CC(C)(C)C3)CC1=O (stereo not drawn) [Compound 6]
Herbicidal activity, AESIN ([1]; 0.016 kg/ha): 0 % inhibition | Herbicidal activity, AESIN ([1]; 0.063 kg/ha): 0 % inhibition | Herbicidal activity, AESIN ([1]; 1.000 kg/ha): 0 % inhibition | Herbicidal activity, AESIN ([1]; 1.250 kg/ha): 0 % inhibition | Herbicidal activity, DIGSA ([2]; 0.016 kg/ha): 0 % inhibition | Herbicidal activity, DIGSA ([2]; 0.063 kg/ha): 0 % inhibition | Herbicidal activity, DIGSA ([2]; 1.000 kg/ha): 100 % inhibition | Herbicidal activity, DIGSA ([2]; 1.250 kg/ha): 60 % inhibition | Herbicidal activity, BROJA ([3]; 0.016 kg/ha): 0 % inhibition | Herbicidal activity, BROJA ([3]; 0.063 kg/ha): 0 % inhibition | Herbicidal activity, BROJA ([3]; 1.000 kg/ha): 80 % inhibition | Herbicidal activity, BROJA ([3]; 1.250 kg/ha): 40 % inhibition | Herbicidal activity, TRZAW ([4]; 0.016 kg/ha): 0 % inhibition | Herbicidal activity, TRZAW ([4]; 0.063 kg/ha): 0 % inhibition | Herbicidal activity, TRZAW ([4]; 1.000 kg/ha): 60 % inhibition | Herbicidal activity, TRZAW ([4]; 1.250 kg/ha): 20 % inhibition | Herbicidal activity, ECHOR ([5]; 0.016 kg/ha): 0 % inhibition | Herbicidal activity, ECHOR ([5]; 0.063 kg/ha): 0 % inhibition | Herbicidal activity, ECHOR ([5]; 1.000 kg/ha): 100 % inhibition | Herbicidal activity, ECHOR ([5]; 1.250 kg/ha): 50 % inhibition | Herbicidal activity, ZEAMX ([6]; 0.016 kg/ha): 0 % inhibition | Herbicidal activity, ZEAMX ([6]; 0.063 kg/ha): 0 % inhibition | Herbicidal activity, ZEAMX ([6]; 1.000 kg/ha): 40 % inhibition | Herbicidal activity, ZEAMX ([6]; 1.250 kg/ha): 0 % inhibition | Herbicidal activity, SOLNI ([7]; 0.016 kg/ha): 0 % inhibition | Herbicidal activity, SOLNI ([7]; 0.063 kg/ha): 0 % inhibition | Herbicidal activity, SOLNI ([7]; 1.000 kg/ha): 0 % inhibition | Herbicidal activity, SOLNI ([7]; 1.250 kg/ha): 0 % inhibition | Herbicidal activity, SORBI ([8]; 0.016 kg/ha): 0 % inhibition | Herbicidal activity, SORBI ([8]; 0.063 kg/ha): 0 % inhibition | Herbicidal activity, SORBI ([8]; 1.000 kg/ha): 30 % inhibition | Herbicidal activity, SORBI ([8]; 1.250 kg/ha): 0 % inhibition
